Assay results from patent US20150291598A1 (NOVARTIS AG, priority 2012, published 2015).

The compounds below were run on P. falciparum (NF54 or 3D7 strain) (assay: Assay for P. falciparum proliferation in infected human blood cells (SYBR Green)). Details: Plasmodium falciparum, Erythrocyte, 72 h, NF54 or 3D7 infected human erythrocytes, 72 hours; read-out: EC50 (nM), inhibitory efficacy in delaying P. falciparum proliferation in infected human blood cells.
Assay type: cell-based, Plasmodium falciparum
How it was run: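 NF54 or 3D7 parasites in O+ human erythrocytes at 2.5% hematocrit and 0.3% parasitemia final, exposed to compounds 72 h at 37 °C under 93% N2/4% CO2/3% O2.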
CN(C(=O)c1cn2c(-c3ccc(OC(C)(C)CN)cc3)cnc2cn1)c1ccc(C#N)cc1 [Compound 402, 3-{4-[(1-amino-2-methylpropan-2-yl)oxy]phenyl}-N-(4-cyanophenyl)-N-methylimidazo[1,2-a]pyrazine-6-carboxamide] gave an EC50 of 3610 nM. CN(C(=O)c1cn2c(-c3ccc(-c4ccn[nH]4)cc3)cnc2cn1)c1ccc(Cl)cc1 [Compound 13, N-(4-chlorophenyl)-N-methyl-3-[4-(1H-pyrazol-5-yl)phenyl]imidazo[1,2-a]pyrazine-6-carboxamide] gave an EC50 of 41 nM. In the case of CN(C(=O)c1cn2c(-c3ccc(-c4nnco4)cc3)cnc2cn1)c1ccc(Cl)nc1 [Compound 410, N-(6-chloropyridin-3-yl)-N-methyl-3-[4-(1,3,4-oxadiazol-2-yl)phenyl]imidazo[1,2-a]pyrazine-6-carboxamide], the EC50 was greater than 10000 nM. With CN(C(=O)c1cn2c(-c3ccc(C(F)(F)F)cc3)cnc2cn1)c1ccc(F)c(Cl)c1 [Compound 32, N-(3-chloro-4-fluorophenyl)-N-methyl-3-[4-(trifluoromethyl)phenyl]imidazo[1,2-a]pyrazine-6-carboxamide] the EC50 was 135 nM. CNc1nnc(-c2ccc(-c3cnc4cnc(C(=O)N(C)c5ccc(C#N)cc5)cn34)cc2)s1 [Compound 476, N-(4-cyanophenyl)-N-methyl-3-{4-[5-(methylamino)-1,3,4-thiadiazol-2-yl]phenyl}imidazo[1,2-a]pyrazine-6-carboxamide] showed an EC50 of 9 nM. CN(C(=O)c1cn2c(-c3ccc(C(F)(F)F)cc3)cnc2cn1)c1ccc(C#N)c(F)c1 [Compound 126, N-(4-cyano-3-fluorophenyl)-N-methyl-3-[4-(trifluoromethyl)phenyl]imidazo[1,2-a]pyrazine-6-carboxamide] gave an EC50 of 125 nM. Work on COc1cccnc1N(C)C(=O)c1cn2c(-c3ccc(C(F)(F)F)cc3)cnc2cn1 [Compound 16, N-(3-methoxypyridin-2-yl)-N-methyl-3-[4-(trifluoromethyl)phenyl]imidazo[1,2-a]pyrazine-6-carboxamide] yielded an EC50 of 454 nM. Compound CN(C(=O)c1cn2c(-c3ccc(C(F)(F)F)cc3)cnc2cn1)c1ncccc1F [Compound 221, N-(3-fluoropyridin-2-yl)-N-methyl-3-[4-(trifluoromethyl)phenyl]imidazo[1,2-a]pyrazine-6-carboxamide] has an EC50 of 4970 nM. CN(C)c1ccc(-c2cnc3cnc(C(=O)N(C)c4ccc(F)cc4)cn23)cc1 [Compound 121, 3-[4-(dimethylamino)phenyl]-N-(4-fluorophenyl)-N-methylimidazo[1,2-a]pyrazine-6-carboxamide] gave an EC50 of 259 nM. For CN(C(=O)c1cn2c(-c3ccc(C(F)(F)F)cc3)cnc2cn1)c1ccc(Cl)cc1Cl [Compound 49, N-(2,4-dichlorophenyl)-N-methyl-3-[4-(trifluoromethyl)phenyl]imidazo[1,2-a]pyrazine-6-carboxamide], the EC50 was 314 nM. CN(C(=O)c1cn2c(-c3ccc(C(F)(F)F)cc3)cnc2cn1)c1ccccc1F [Compound 119, N-(2-fluorophenyl)-N-methyl-3-[4-(trifluoromethyl)phenyl]imidazo[1,2-a]pyrazine-6-carboxamide] was tested, and the EC50 was 507 nM. With CN(C(=O)c1cn2c(-c3ccc(C(F)(F)F)cc3)cnc2cn1)c1cccnc1F [Compound 54, N-(2-fluoropyridin-3-yl)-N-methyl-3-[4-(trifluoromethyl)phenyl]imidazo[1,2-a]pyrazine-6-carboxamide] the EC50 was greater than 9280 nM. Compound COc1cc(C#N)ccc1N(C)C(=O)c1cn2c(-c3ccc(C(F)(F)F)cc3)cnc2cn1 [Compound 503, N-(4-cyano-2-methoxyphenyl)-N-methyl-3-[4-(trifluoromethyl)phenyl]imidazo[1,2-a]pyrazine-6-carboxamide] has an EC50 of 60 nM. With CN(C(=O)c1cn2c(-c3cnn(Cc4ccccc4)c3)cnc2cn1)c1ccc(C#N)cc1 [Compound 178, 3-(1-benzyl-1H-pyrazol-4-yl)-N-(4-cyanophenyl)-N-methylimidazo[1,2-a]pyrazine-6-carboxamide] the EC50 was 6510 nM. Compound COc1ccc(C(=O)N(C)c2cn3c(-c4ccc(C(F)(F)F)cc4)cnc3cn2)cc1 [Compound 311, 4-methoxy-N-methyl-N-{3-[4-(trifluoromethyl)phenyl]imidazo[1,2-a]pyrazin-6-yl}benzamide] has an EC50 of 2780 nM. Work on COc1ccc(N(C)C(=O)c2cn3c(-c4ccc(C(F)(F)F)cc4)cnc3cn2)nn1 [Compound 395, N-(6-methoxypyridazin-3-yl)-N-methyl-3-[4-(trifluoromethyl)phenyl]imidazo[1,2-a]pyrazine-6-carboxamide] yielded an EC50 of 5020 nM. CN(C(=O)c1cn2c(-c3ccc(-c4nnc(N)o4)cc3)cnc2cn1)c1ccc(C#N)cc1 [Compound 248, 3-[4-(5-amino-1,3,4-oxadiazol-2-yl)phenyl]-N-(4-cyanophenyl)-N-methylimidazo[1,2-a]pyrazine-6-carboxamide] showed an EC50 of 87 nM. For CN(C(=O)c1cn2c(-c3ccc(C(F)(F)F)cc3)cnc2cn1)c1nc2ccccc2s1 [Compound 14, N-(1,3-benzothiazol-2-yl)-N-methyl-3-[4-(trifluoromethyl)phenyl]imidazo[1,2-a]pyrazine-6-carboxamide], the EC50 was 9580 nM. Compound CN(C(=O)c1cn2c(-c3ccc(OC(F)F)cc3)cnc2cn1)c1ccc(F)c(F)c1 [Compound 142, 3-[4-(difluoromethoxy)phenyl]-N-(3,4-difluorophenyl)-N-methylimidazo[1,2-a]pyrazine-6-carboxamide] has an EC50 of 202 nM. CC1(C)CN(C(=O)c2cn3c(-c4ccc(C(F)(F)F)cc4)cnc3cn2)c2ccc(C#N)cc2O1 [Compound 350, 2,2-dimethyl-4-({3-[4-(trifluoromethyl)phenyl]imidazo[1,2-a]pyrazin-6-yl}carbonyl)-3,4-dihydro-2H-1,4-benzoxazine-7-carbonitrile] was tested, and the EC50 was greater than 5630 nM. CN(C(=O)c1cn2c(-c3ccc(-n4cccn4)cc3)cnc2cn1)c1ccc(C#N)cc1 [Compound 87, N-(4-cyanophenyl)-N-methyl-3-[4-(1H-pyrazol-1-yl)phenyl]imidazo[1,2-a]pyrazine-6-carboxamide] showed an EC50 of 104 nM. Work on CN(C(=O)c1cn2c(-c3ccc(C(F)(F)F)cc3)cnc2cn1)c1ccc(C(F)(F)F)cn1 [Compound 337, N-methyl-3-[4-(trifluoromethyl)phenyl]-N-[5-(trifluoromethyl)pyridin-2-yl]imidazo[1,2-a]pyrazine-6-carboxamide] yielded an EC50 greater than 7160 nM. In the case of CN(C(=O)c1cn2c(-c3ccc(F)cc3)cnc2cn1)c1ccc(C#N)cc1 [Compound 153, N-(4-cyanophenyl)-3-(4-fluorophenyl)-N-methylimidazo[1,2-a]pyrazine-6-carboxamide], the EC50 was 2060 nM. CN(C(=O)c1cn2c(-c3ccc4c(=O)[nH]ccc4c3)cnc2cn1)c1ccc(C#N)cc1 [Compound 168, N-(4-cyanophenyl)-N-methyl-3-(1-oxo-1,2-dihydroisoquinolin-6-yl)imidazo[1,2-a]pyrazine-6-carboxamide] gave an EC50 of 558 nM. In the case of CN(Cc1cn2c(-c3ccc(-c4ccn[nH]4)cc3)cnc2cn1)c1ccc(F)cc1 [Compound 3, N-((3-(4-(1H-pyrazol-5-yl)phenyl)imidazo[1,2-a]pyrazin-6-yl)methyl)-4-fluoro-N-methylaniline], the EC50 was 58 nM. Work on CN(C(=O)c1cn2c(-c3ccc(C(F)(F)F)cc3)cnc2cn1)c1nc(-c2ccccc2)cs1 [Compound 423, N-methyl-N-(4-phenyl-1,3-thiazol-2-yl)-3-[4-(trifluoromethyl)phenyl]imidazo[1,2-a]pyrazine-6-carboxamide] yielded an EC50 greater than 9660 nM.
